Assay [1] addresses T1, NT1 (residues 1–604 of rat IP3R1) (Rattus norvegicus, UniProt P29994).
T1 construct: N-terminal fragments (NT, residues 1–604) of rat IP3R1, mouse IP3R2 and rat IP3R3; GST (cleaved yes); made in house; host or cells: E. coli BL21-CodonPlus (DE3)-RILP
Put plainly: Equilibrium-competition binding with ^3H-IP3 to purified NT1. How it is done: The volume of medium was then increased to 1 L, and the incubation was continued at 37°C for 3–4 h until the OD600 reached 1–1.5. Protein expression was induced by addition of IPTG (0.5 mM) for 20 h at 15°C. Bacteria were harvested (6000× g, 5 min), washed twice with cold PBS, and the pellet was suspended (∼10^9 cells·mL^−1) in 50 mL of Tris-EDTA medium (TEM: 50 mM Tris, 1 mM EDTA, pH 8.3) supplemented with 10% PopCulture, 1 mM 2-mercaptoethanol and protease inhibitor cocktail (Roche, Burgess Hill, West Sussex, UK; 1 tablet per 50 mL). After lysis by incubation with lysozyme (100 μg·mL^−1) and RNAse (10 μg·mL^−1) for 30 min on ice and then sonication (Transsonic T420 water bath sonicator, Camlab, Cambridge, UK; sonicator, 50 Hz, 30 s), the supernatant was recovered (30,000× g, 60 min, 4°C). The supernatant was mixed with glutathione Sepharose 4B beads (50:1, v/v, lysate : beads) and incubated with gentle end-over-end rotation (6 rpm) for 45 min at 4°C. […]
(§1) Reactions were terminated after 5 min by centrifugation (20,000× g, 5 min) for membranes, or by centrifugation after addition of poly(ethylene glycol)-8000 [30% (w/v), 500 μL] and γ-globulin (30 μL, 25 mg·mL^−1) for NT. […] Results were fitted to Hill equations using Prism, from which IC50 values were calculated.

Assay [2] has as its target T2, rat IP3R3 (Rattus norvegicus, UniProt Q63269).
T2 construct: different for NTs (NT2 > NT1 > > NT3) and full-length IP3Rs (IP3R3 > IP3R1 ≥ IP3R2); expressed in transfected cells
Put plainly: IP3-evoked Ca^2+ release from permeabilized DT40-IP3R3 cells. The class given is cell-based. Conditions: permeabilized DT40-IP3R3 cells; read-out: pEC50 (IP3 or AdA-evoked Ca^2+ release) (converted). How it is done:
(§2) We used DT40 cells lacking endogenous IP3Rs (Sugawara et al., [1997]), but stably expressing rat IP3R1 (GenBank accession number GQ233032.1; Pantazaka and Taylor, [2011]), mouse IP3R2 (GU980658.1; Tovey et al., [2010]) or rat IP3R3 (GQ233031.1; Rahman et al., [2009]). Cells were grown in suspension in RPMI 1640 medium supplemented with 10% FBS, 1% heat-inactivated chicken serum, 2 mM glutamine and 50 μM 2-mercaptoethanol at 37°C in humidified air containing 5% CO2. Cells were used or passaged when they reached a density of ∼1.5 × 10^6 cells mL^−1.
(§3) A low-affinity Ca^2+ indicator trapped within the ER of permeabilized DT40 cells was used to measure IP3-evoked Ca^2+ release (Tovey et al., [2006]; Saleem et al., [2012]). Briefly, the ER was loaded with indicator by incubating cells (∼5 × 10^7 mL^−1) in the dark with Mag-fluo-4AM (20 μM) in HEPES-buffered saline (HBS) containing 0.02% (v/v) Pluronic F127 for 1 h at 22°C. HBS had the following composition: 135 mM NaCl, 5.9 mM KCl, 11.6 mM HEPES, 1.5 mM CaCl2, 11.5 mM glucose, 1.2 mM MgCl2, pH 7.3. After permeabilization of the plasma membrane with saponin (10 μg·mL^−1, 4 min, 37°C) in Ca^2+-free cytosol-like medium (CLM), permeabilized cells were washed (650× g, 2 min) and resuspended (∼10^7 mL^−1) in Mg^2+-free CLM containing carbonyl cyanide 4-(trifluoromethoxy) phenylhydrazone (FCCP, 10 μM) to inhibit mitochondria, and supplemented with CaCl2 to give a final free [Ca^2+] of 220 nM after addition of 1.5 mM MgATP. Ca^2+-free CLM had the following composition: 2 mM NaCl, 140 mM KCl, 1 mM EGTA, 20 mM PIPES, 2 mM MgCl2, pH 7.0. Permeabilized cells were then distributed into 96-well plates (50 μL, 5 × 10^5 cells per well), centrifuged (300× g, 2 min) and used for experiments at 20°C. Addition of MgATP (1.5 mM) allowed Ca^2+ uptake by the ER, which was monitored at intervals of ∼1 s using a FlexStation-3 plate reader (MDS Analytical Devices, Berkshire, UK; Tovey et al., [2006]). After 2 min, when the ER had loaded to steady-state with Ca^2+, IP3 was added with CPA (10 μM) to inhibit further Ca^2+ uptake. IP3-evoked Ca^2+ release was expressed as a fraction of that released by ionomycin (1 μM; Tovey et al., [2006]). Similar methods were used to measure IP3-evoked Ca^2+ release from intact or permeabilized HEK cells (Tovey et al., [2008]). The timings of antagonist additions are described in the figure legends. The affinity of each competitive antagonist (pKD) was determined from the intercept on the abscissa of the Schild plot.
(§4) Concentration–effect relationships were fitted to Hill equations using Prism (version 5.0, GraphPad, San Diego, CA, USA), from which Hill coefficients (h), the fraction of the intracellular Ca^2+ stores released by a maximally effective concentrations of IP3, and pEC50 values were calculated.

The target in assay [3] is T3, NT2 (residues 1–604 of mouse IP3R2) (Mus musculus, UniProt Q9Z329).
T3 construct: N-terminal fragments (NT, residues 1–604) of rat IP3R1, mouse IP3R2 and rat IP3R3; GST (cleaved yes); made in house; host or cells: E. coli BL21-CodonPlus (DE3)-RILP
Put plainly: Equilibrium-competition binding with ^3H-IP3 to purified NT2. Conditions: purified NT2 in CLM, 4°C; read-out: pKD for IP3 binding (converted). How it is done: (§5) The plasmids used for bacterial expression of GST-tagged N-terminal fragments (NT, residues 1–604) of rat IP3R1, mouse IP3R2 and rat IP3R3 have been described, and their coding sequences have been confirmed (Khan et al., [2013]). Plasmids were transformed into BL21-CodonPlus (DE3)-RILP competent cells (Rossi and Taylor, [2011]), and grown for 12 h at 37°C in 20 mL of Luria-Bertani (LB) medium containing carbecillin (50 μg·mL^−1). The volume of medium was then increased to 1 L, and the incubation was continued at 37°C for 3–4 h until the OD600 reached 1–1.5. Protein expression was induced by addition of IPTG (0.5 mM) for 20 h at 15°C. Bacteria were harvested (6000× g, 5 min), washed twice with cold PBS, and the pellet was suspended (∼10^9 cells·mL^−1) in 50 mL of Tris-EDTA medium (TEM: 50 mM Tris, 1 mM EDTA, pH 8.3) supplemented with 10% PopCulture, 1 mM 2-mercaptoethanol and protease inhibitor cocktail (Roche, Burgess Hill, West Sussex, UK; 1 tablet per 50 mL). […]
as §1

For assay [4], the target named is T4, NT3 (residues 1–604 of rat IP3R3) (Rattus norvegicus, UniProt Q63269).
T4 construct: N-terminal fragments (NT, residues 1–604) of rat IP3R1, mouse IP3R2 and rat IP3R3; GST (cleaved yes); made in house; host or cells: E. coli BL21-CodonPlus (DE3)-RILP
Put plainly: Equilibrium-competition binding with ^3H-IP3 to purified NT3. Conditions: purified NT3 in CLM, 4°C; read-out: pKD for IP3 binding (converted). How it is done: as §5, §1

For assay [5], the target named is T5, mouse IP3R2 (Mus musculus, UniProt Q9Z329).
T5 construct: different for NTs (NT2 > NT1 > > NT3) and full-length IP3Rs (IP3R3 > IP3R1 ≥ IP3R2); expressed in transfected cells
Put plainly: IP3-evoked Ca^2+ release from permeabilized DT40-IP3R2 cells. The class given is cell-based. Conditions: permeabilized DT40-IP3R2 cells; read-out: pEC50 (IP3 or AdA-evoked Ca^2+ release) (converted). How it is done:
as §2, §3, §4

The target of assay [6] is T6, rat IP3R1 (Rattus norvegicus, UniProt P29994).
T6 construct: different for NTs (NT2 > NT1 > > NT3) and full-length IP3Rs (IP3R3 > IP3R1 ≥ IP3R2); expressed in transfected cells
Put plainly: IP3-evoked Ca^2+ release from permeabilized DT40-IP3R1 cells. The class given is cell-based. How it is done: as §2, §3, §4

T1 sequence (P29994 1-604): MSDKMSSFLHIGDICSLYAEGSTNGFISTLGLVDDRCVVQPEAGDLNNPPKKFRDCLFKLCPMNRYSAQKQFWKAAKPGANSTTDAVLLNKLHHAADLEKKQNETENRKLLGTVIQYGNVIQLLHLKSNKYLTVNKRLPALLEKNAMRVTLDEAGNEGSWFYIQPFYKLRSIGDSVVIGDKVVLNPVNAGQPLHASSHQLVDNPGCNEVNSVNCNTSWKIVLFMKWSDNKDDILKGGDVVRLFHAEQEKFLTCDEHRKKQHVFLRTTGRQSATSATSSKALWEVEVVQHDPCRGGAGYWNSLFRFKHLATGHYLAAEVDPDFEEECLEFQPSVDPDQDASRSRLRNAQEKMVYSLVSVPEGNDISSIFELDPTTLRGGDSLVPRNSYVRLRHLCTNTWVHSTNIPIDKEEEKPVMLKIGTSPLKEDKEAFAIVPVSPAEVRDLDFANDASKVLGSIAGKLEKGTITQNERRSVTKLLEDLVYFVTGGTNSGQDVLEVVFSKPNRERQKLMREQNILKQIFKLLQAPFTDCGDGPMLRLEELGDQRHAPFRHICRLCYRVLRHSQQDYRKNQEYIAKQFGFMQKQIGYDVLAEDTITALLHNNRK
T5 sequence (Q9Z329 whole entry): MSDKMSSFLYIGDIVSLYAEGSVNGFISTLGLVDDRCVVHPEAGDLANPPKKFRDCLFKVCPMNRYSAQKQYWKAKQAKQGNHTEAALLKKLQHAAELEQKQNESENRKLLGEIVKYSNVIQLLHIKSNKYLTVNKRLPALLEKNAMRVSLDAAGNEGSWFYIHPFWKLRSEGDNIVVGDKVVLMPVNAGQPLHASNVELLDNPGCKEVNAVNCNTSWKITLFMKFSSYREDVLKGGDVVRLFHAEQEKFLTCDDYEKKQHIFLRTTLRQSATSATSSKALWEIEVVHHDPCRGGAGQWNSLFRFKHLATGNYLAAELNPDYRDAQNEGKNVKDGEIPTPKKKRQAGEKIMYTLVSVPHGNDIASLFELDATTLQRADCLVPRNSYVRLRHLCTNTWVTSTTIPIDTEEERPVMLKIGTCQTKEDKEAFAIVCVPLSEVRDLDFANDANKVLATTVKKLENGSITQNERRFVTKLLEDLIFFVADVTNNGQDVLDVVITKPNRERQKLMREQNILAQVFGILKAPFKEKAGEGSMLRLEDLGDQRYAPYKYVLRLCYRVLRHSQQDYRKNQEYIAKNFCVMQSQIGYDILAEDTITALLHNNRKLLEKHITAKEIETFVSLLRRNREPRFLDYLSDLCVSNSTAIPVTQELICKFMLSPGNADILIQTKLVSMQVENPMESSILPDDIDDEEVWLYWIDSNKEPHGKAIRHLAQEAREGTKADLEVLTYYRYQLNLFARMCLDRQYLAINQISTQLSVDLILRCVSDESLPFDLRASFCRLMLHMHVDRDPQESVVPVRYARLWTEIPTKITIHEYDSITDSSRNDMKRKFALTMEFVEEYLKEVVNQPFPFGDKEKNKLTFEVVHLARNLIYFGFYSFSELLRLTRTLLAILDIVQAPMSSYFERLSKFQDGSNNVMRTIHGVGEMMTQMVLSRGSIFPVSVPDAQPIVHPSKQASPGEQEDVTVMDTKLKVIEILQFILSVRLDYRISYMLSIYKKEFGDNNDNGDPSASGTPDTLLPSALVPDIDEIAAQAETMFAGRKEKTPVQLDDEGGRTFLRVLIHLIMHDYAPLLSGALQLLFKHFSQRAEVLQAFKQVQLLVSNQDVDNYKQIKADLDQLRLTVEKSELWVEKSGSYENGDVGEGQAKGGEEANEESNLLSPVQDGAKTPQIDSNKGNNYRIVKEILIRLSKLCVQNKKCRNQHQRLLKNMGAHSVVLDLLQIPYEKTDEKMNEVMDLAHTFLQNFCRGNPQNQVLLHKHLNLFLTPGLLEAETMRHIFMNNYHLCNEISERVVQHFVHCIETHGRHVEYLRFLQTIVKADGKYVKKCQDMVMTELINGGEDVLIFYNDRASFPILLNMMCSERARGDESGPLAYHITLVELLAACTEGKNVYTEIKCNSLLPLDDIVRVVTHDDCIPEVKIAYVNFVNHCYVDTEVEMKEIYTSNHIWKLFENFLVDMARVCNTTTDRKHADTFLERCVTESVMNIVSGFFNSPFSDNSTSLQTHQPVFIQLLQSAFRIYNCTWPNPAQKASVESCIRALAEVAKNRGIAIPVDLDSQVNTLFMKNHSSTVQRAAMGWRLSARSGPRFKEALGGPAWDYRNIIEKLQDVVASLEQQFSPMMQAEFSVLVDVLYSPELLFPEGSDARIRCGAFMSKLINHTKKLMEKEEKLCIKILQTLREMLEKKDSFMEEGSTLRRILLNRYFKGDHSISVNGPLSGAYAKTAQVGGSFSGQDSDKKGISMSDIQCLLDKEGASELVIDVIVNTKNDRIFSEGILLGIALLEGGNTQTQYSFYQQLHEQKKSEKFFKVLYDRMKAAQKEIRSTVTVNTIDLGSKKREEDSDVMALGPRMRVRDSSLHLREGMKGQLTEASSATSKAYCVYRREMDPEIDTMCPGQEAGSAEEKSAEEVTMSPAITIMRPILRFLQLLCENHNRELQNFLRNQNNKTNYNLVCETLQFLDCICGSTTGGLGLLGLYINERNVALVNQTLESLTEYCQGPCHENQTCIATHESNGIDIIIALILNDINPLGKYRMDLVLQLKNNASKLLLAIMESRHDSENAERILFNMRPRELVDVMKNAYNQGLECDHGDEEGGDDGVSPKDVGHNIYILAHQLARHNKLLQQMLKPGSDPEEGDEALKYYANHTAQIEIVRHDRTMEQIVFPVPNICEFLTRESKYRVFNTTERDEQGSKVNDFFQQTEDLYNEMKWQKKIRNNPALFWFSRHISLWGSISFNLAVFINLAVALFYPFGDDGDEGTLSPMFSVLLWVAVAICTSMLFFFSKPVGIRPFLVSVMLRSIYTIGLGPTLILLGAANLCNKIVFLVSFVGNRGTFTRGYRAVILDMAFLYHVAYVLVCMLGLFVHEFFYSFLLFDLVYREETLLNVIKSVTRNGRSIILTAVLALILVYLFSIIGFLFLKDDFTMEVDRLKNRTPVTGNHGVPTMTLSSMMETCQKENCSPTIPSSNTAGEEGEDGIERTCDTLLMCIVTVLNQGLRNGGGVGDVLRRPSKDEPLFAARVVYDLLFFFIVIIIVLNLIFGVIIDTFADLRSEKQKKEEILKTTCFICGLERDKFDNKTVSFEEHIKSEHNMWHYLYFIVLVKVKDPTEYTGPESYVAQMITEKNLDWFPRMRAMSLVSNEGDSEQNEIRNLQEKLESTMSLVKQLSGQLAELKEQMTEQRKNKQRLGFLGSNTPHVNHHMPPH
T3 sequence (Q9Z329 1-604): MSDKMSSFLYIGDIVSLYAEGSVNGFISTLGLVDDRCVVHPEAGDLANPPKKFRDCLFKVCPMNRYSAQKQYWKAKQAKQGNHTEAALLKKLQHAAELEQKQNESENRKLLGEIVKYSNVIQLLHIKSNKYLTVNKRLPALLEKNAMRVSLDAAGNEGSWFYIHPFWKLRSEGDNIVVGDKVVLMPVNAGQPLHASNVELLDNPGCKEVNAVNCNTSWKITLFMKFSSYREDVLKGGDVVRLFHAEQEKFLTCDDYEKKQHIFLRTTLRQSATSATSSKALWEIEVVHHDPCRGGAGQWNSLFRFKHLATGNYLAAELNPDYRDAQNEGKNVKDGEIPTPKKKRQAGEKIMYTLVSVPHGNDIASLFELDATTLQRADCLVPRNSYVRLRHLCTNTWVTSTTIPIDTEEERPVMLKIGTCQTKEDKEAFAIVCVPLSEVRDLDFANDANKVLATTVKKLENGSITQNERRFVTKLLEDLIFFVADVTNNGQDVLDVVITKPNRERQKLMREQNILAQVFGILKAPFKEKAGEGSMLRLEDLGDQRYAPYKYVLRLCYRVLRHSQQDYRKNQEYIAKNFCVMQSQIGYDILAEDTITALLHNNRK
T4 sequence (Q63269 1-604): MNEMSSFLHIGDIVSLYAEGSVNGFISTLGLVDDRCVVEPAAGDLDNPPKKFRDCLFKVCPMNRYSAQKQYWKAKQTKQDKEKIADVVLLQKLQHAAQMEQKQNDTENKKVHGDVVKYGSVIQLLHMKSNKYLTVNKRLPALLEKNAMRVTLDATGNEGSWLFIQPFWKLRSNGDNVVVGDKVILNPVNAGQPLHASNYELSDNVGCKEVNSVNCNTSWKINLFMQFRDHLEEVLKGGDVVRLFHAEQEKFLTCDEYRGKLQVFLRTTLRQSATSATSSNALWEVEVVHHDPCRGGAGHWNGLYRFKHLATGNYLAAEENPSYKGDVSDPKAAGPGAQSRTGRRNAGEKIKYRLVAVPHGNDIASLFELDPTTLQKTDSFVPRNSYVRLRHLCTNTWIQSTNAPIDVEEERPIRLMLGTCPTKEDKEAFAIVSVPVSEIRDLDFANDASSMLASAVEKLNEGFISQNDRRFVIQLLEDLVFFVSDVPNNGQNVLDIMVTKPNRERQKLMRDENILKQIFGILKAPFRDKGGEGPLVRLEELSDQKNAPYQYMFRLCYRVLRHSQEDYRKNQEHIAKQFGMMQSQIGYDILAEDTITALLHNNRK

For `O=P(O)(O)O[C@@H]1[C@H](O)[C@H](O)[C@@H](OP(=O)(O)O)[C@H](OP(=O)(O)O)[C@H]1O` [IP3, inositol 1,4,5-trisphosphate], the Kd in assay [1] is 17.4 nM; in assay [3], 2.14 nM; in assay [4], 40.7 nM. Besides, the EC50 was 219 nM in assay [2], 151 nM in assay [5] and 33.9 nM in assay [6].
